# Entries after “also recorded” stand apart in the source; their conditions may differ.
# Columns and labels:
# Assay type in all cases: cell-based
# E. coli JMI 21711R [1] = assay: change in bacterial density in vitro over 24 hours (growth rate)
# Text: Moreover, note the impact of ascorbic acid on the time-course of levofloxacin antimicrobial activity.
# S. aureus ATCC 29213 [2] = assay: levofloxacin MIC; conditions: Staphylococcus aureus, ATCC29213
# E. coli JMI 21711R [3] = assay: levofloxacin MIC; conditions: Escherichia coli, JMI21711R
# S. aureus ATCC 29213 [4] = assay: 10-day hollow-fiber in vitro infection model
# Text: The treatment arms and associated control arms differed only in sodium chloride concentration (0 and 8%) within the growth media. The initial bacterial inoculum in the model was 1×10^8 CFU/mL was selected to approximate that observed in high-density infections, such as pneumonia. Moreover, the 10-day study duration was selected to approximate that typical for pneumonia.
# Note that in the media in which the challenge isolate grew slowly (sodium chloride 8%), the time-until a reduction of bacterial density to 1×10^2 CFU/mL was 10 days. On the other hand, in the media in which the challenge isolate grew rapidly (sodium chloride 0%), the time-until reduction of bacterial density to 1×10^2 CFU/mL was 3 days.
# E. coli JMI 21711R [5] = conditions: norepinephrine 500 μM, no levofloxacin
# Protocol: Each treatment arm and its associated control arm differed only in norepinephrine concentration (0, 500 μM) within the growth media.
# S. aureus ATCC 29213 [6] = assay: change in bacterial density in vitro over 24 hours (growth rate in Mueller-Hinton II broth); conditions: S. aureus ATCC 29213, in vitro over 24 hours, starting inoculum 1×10^6 CFU/mL, increasing sodium chloride concentration
# S. aureus ATCC 29213 [7] = assay: 24-hour one-compartment dynamic in vitro infection model; conditions: 10% sodium chloride, no levofloxacin
# Text: Not previously recognized is the potential to modulate the intrinsic bacterial replication rate in combination with an antimicrobial agent as a means to increase the rate and extent of bactericidal activity. […] Each treatment arm and associated control arm differed only in sodium chloride concentration (0, 8, and 10%) within the growth media. […] Note also that bacterial killing occurred only during bacterial replication.
structure (smiles),measurement,setting,value
"O=C1O[C@H]([C@@H](O)CO)C(O)=C1O [ascorbic acid, Ascorbic acid]",bacterial replication rate relative to no treatment control,E. coli JMI 21711R [1]; ascorbic acid without levofloxacin,increases the bacterial replication rate relative to no treatment control
C[C@H]1COc2c(N3CCN(C)CC3)c(F)cc3c(=O)c(C(=O)O)cn1c23 [levofloxacin],MIC,S. aureus ATCC 29213 [2],0.125 µg/mL
same,MIC,E. coli JMI 21711R [3],8 µg/mL
same,reduction in time-until a reduction of bacterial density to 1×10^2 CFU/mL,S. aureus ATCC 29213 [4]; fast (sodium chloride 0%) versus slow (sodium chloride 8%) growing media,70%
same,time-until reduction of bacterial density to 1×10^2 CFU/mL,"S. aureus ATCC 29213 [4]; sodium chloride 0% (rapid growth), initial inoculum 1×10^8 CFU/mL, levofloxacin AUC:MIC ratio 520",3 days
same,time-until a reduction of bacterial density to 1×10^2 CFU/mL,"S. aureus ATCC 29213 [4]; sodium chloride 8% (slow growth), initial inoculum 1×10^8 CFU/mL, levofloxacin AUC:MIC ratio 520",10 days
"NCC(O)c1ccc(O)c(O)c1 (stereo not shown) [norepinephrine, Norepinephrine]",bacterial replication rate (change in bacterial density),"E. coli JMI 21711R [1]; starting inoculum 1×10^6 CFU/mL, increasing norepinephrine concentration",as norepinephrine concentration increases so too does the bacterial replication rate; also recorded: sped up
same,growth of control arm relative to no-treatment control arm,E. coli JMI 21711R [5],grew faster
[Cl-].[Na+] [sodium chloride],bacterial replication rate (change in bacterial density),S. aureus ATCC 29213 [6],"as sodium chloride concentration increases, the bacterial replication rate decreases; also recorded: slowed"
same,growth in control arm,S. aureus ATCC 29213 [7],delayed for four hours
